From patent publication US8129368B2, “5,6-dihydro-1H-pyridin-2-one compounds” (priority 2008, dated 2012)
Read-outs that look alike come from different tables or passages of the source.

Tested on: HCV Huh-luc/neo-ET replicon cells
Test: Luciferase-Based HCV Replicon Assay (EC50 (1b))
Type: cell-based
Settings: Hepatitis C virus
Method: Luciferase-Based HCV Replicon Assay Protocol (EC50 (1b))
The cell culture component of the assay is performed essentially as described by Bartenschlager et al., Hepatology 2002, 35, 694-703, wherein exponentially growing HCV Huh-luc/neo-ET replicon cells were seeded at 6×10^3 cells/well in 96 well assay plate. 24 hours later the cells were treated with various concentrations of compound or combination of compounds in triplicate using both fixed ratios and checkerboard matrices of test agents and cultured for 72 hours. The luciferase activity in the wells was determined using Bright-Glo reagent (Promega, Madison, Wis.) with a luminometer (Wallac 1420 Multilabel HTS Counter Victor 2). The background control was replicon cells treated with 100 nM BILN-2061, an inhibitor of the HCV protease. % Inhibition was determined for each compound concentration in relation to the negative (no compound) control to calculate the EC50(1b).

[1] = HCV Huh-luc/neo-ET replicon cells, 72 hours, luciferase activity, read-out: EC50 (1b)
[2] = HCV Huh-luc/neo-ET replicon cells, 72 hours, luciferase activity, read-out: EC50(1b) concentration

CS(=O)(=O)Nc1ccc2c(c1)S(=O)(=O)NC(C1=C(O)[C@@H]3[C@@H]4CC[C@@H](C4)[C@@H]3N(CC3(C(F)(F)F)CC3)C1=O)=N2 [Example 22, N-{3-[(1S,2S,7R,8R)-6-Hydroxy-4-oxo-3-(1-trifluoromethyl-cyclopropylmethyl)-3-aza-tricyclo[6.2.1.0^2,7]undec-5-en-5-yl]-1,1-dioxo-1,2-dihydro-1λ^6-benzo[1,2,4]thiadiazin-7-yl}-methanesulfonamide]
EC50 [1]: 5 to 25 nM | EC50 [2]: < 25 nM

CS(=O)(=O)Nc1ccc2c(c1)S(=O)(=O)NC(C1=C(O)[C@@H]3[C@@H]4CC[C@@H](C4)[C@@H]3N(Cc3ccc(F)c(F)c3)C1=O)=N2 [Example 23, N-{3-[(1S,2S,7R,8R)-3-(3,4-Difluoro-benzyl)-6-hydroxy-4-oxo-3-aza-tricyclo[6.2.1.0^2,7]undec-5-en-5-yl]-1,1-dioxo-1,2-dihydro-1λ^6-benzo[1,2,4]thiadiazin-7-yl}-methanesulfonamide]
EC50 (Huh-luc/neo-ET, 72 h, read-out: EC50 (1b)): 5 to 25 nM | EC50 (Huh-luc/neo-ET, 72 h, read-out: EC50(1b) concentration): < 25 nM

CS(=O)(=O)Nc1ccc2c(c1)S(=O)(=O)NC(C1=C(O)[C@@H]3[C@H]4CC[C@H](C4)[C@@H]3N(Cc3ccc(F)c(F)c3F)C1=O)=N2 [Example 24, N-{3-[(1R,2S,7R,8S)-6-Hydroxy-4-oxo-3-(2,3,4-trifluoro-benzyl)-3-aza-tricyclo[6.2.1.0^2,7]undec-5-en-5-yl]-1,1-dioxo-1,2-dihydro-1λ^6-benzo[1,2,4]thiadiazin-7-yl}-methanesulfonamide]
EC50 [1]: 5 to 25 nM | EC50 [2]: < 25 nM

CS(=O)(=O)Nc1ccc2c(c1)S(=O)(=O)NC(C1=C(O)[C@@H]3[C@H]4CC[C@H](C4)[C@@H]3N(Cc3ccsc3)C1=O)=N2 [Example 25, N-{3-[(1R,2S,7R,8S)-6-Hydroxy-4-oxo-3-thiophen-3-ylmethyl-3-aza-tricyclo[6.2.1.0^2,7]undec-5-en-5-yl]-1,1-dioxo-1,2-dihydro-1λ^6-benzo[1,2,4]thiadiazin-7-yl}-methanesulfonamide]
EC50 [1]: 5 to 25 nM | EC50 [2]: < 25 nM

CS(=O)(=O)Nc1ccc2c(c1)S(=O)(=O)NC(C1=C(O)[C@@H]3C4CCC(CC4)[C@@H]3N(Cc3cc(F)c(F)cc3F)C1=O)=N2 [Example 26]
EC50 [1]: 5 to 25 nM | EC50 [2]: < 25 nM

CS(=O)(=O)Nc1ccc2c(c1)S(=O)(=O)NC(C1=C(O)[C@@H]3[C@H]4CC[C@H](C4)[C@@H]3N(Cc3cccs3)C1=O)=N2 [Example 27, N-{3-[(1R,2S,7R,8S)-6-Hydroxy-4-oxo-3-thiophen-2-ylmethyl-3-aza-tricyclo[6.2.1.0^2,7]undec-5-en-5-yl]-1,1-dioxo-1,2-dihydro-1λ^6-benzo[1,2,4]thiadiazin-7-yl}-methanesulfonamide]
EC50 [1]: 5 to 25 nM | EC50 [2]: < 25 nM

CS(=O)(=O)Nc1ccc2c(c1)S(=O)(=O)NC(C1=C(O)[C@@H]3[C@H]4CC[C@H](C4)[C@@H]3N(CC3CCCCC3)C1=O)=N2 [Example 28]
EC50 [1]: 5 to 25 nM | EC50 [2]: < 25 nM

Cc1ccccc1CN1C(=O)C(C2=Nc3ccc(NS(C)(=O)=O)cc3S(=O)(=O)N2)=C(O)[C@@H]2[C@@H]3CC[C@@H](C3)[C@@H]21 [Example 29, N-{3-[(1S,2S,7R,8R)-6-Hydroxy-3-(2-methyl-benzyl)-4-oxo-3-aza-tricyclo[6.2.1.0^2,7]undec-5-en-5-yl]-1,1-dioxo-1,2-dihydro-1λ^6-benzo[1,2,4]thiadiazin-7-yl}-methanesulfonamide]
EC50 [1]: 5 to 25 nM | EC50 [2]: < 25 nM

CS(=O)(=O)Nc1ccc2c(c1)S(=O)(=O)NC(C1=C(O)[C@@H]3[C@@H]4CC[C@@H](C4)[C@@H]3N(Cc3cccc(F)c3)C1=O)=N2 [Example 30]
EC50 [1]: 5 to 25 nM | EC50 [2]: < 25 nM
